Measured values taken from publication PMC12223358 (2025).

How the values were obtained:
[1] = tested on: CPG-c-myc (DNA, G4) TGGGGAGGGTGGGGAGGGTGGGGAAGGTGGGGA; experiment: G4-CPG affinity chromatography, UV; conditions: 50 mM KCl; 10% DMSO, 10% ethanol; 60 µM compound loaded; error ±2%
[2] = tested on: CPG-ds27 (DNA, hairpin) CGCGAATTCGCGTTTCGCGAATTCGCG; experiment: G4-CPG affinity chromatography, UV; conditions: 50 mM KCl; 10% DMSO, 10% ethanol; 60 µM compound loaded; error ±2%
[3] = tested on: pu22 (DNA, G4) TGAGGGTGGGTAGGGTGGGTAA; experiment: CD melting, 263 nm; conditions: no metal cations, 10 mM Tris-HCl, pH 7, 2 µM DNA, 4 µM compound (2 equiv), free Tm 27 °C
[4] = tested on: CPG-tel26 (DNA, G4) TTAGGGTTAGGGTTAGGGTTAGGGTT; experiment: G4-CPG affinity chromatography, UV; conditions: 50 mM KCl; 10% DMSO, 10% ethanol; 60 µM compound loaded; error ±2%
[5] = tested on: tel26 (DNA, G4) TTAGGGTTAGGGTTAGGGTTAGGGTT; experiment: CD melting, 290 nm; conditions: 20 mM KCl, 5 mM potassium phosphate, pH 7, 2 µM DNA, 4 µM compound (2 equiv), free Tm 43 °C
[6] = tested on: ds12 (DNA, duplex) CGCGAATTCGCG; experiment: CD melting, 253 nm; conditions: 20 mM KCl, 5 mM potassium phosphate; pH 7; 2 µM DNA; 4 µM compound (2 equiv); free Tm 65 °C
[7] = tested on: ds12 (DNA, duplex) CGCGAATTCGCG; experiment: CD titration; conditions: 20 mM KCl, 5 mM potassium phosphate; pH 7, 20 °C; 2 µM DNA; up to 4 µM compound; no relevant CD effect

| Bound ligand (%) [1] | Bound ligand (%) [2] | ΔTm [3] | Bound ligand (%) [4] | ΔTm ([5]; switch to parallel fold) | ΔTm ([3]; two transitions) | ΔTm [6] | ΔTm [5] | binding [7] | SMILES |
| --- | --- | --- | --- | --- | --- | --- | --- | --- | --- |
| 100% | 40% | +45 °C | 79% | – | – | – | – | – | C[n+]1ccc(C#Cc2cnc3n4ccnc4n4c(C#Cc5cc[n+](C)cc5)cnc4n23)cc1 |
| 99% | 56% | – | 89% | +22 °C | +16/ + 63 °C | +15 °C | – | – | C[n+]1ccccc1C#Cc1cnc2n1c1ncc(C#Cc3cccc[n+]3C)n1c1ncc(C#Cc3cccc[n+]3C)n21 |
| 85% | 10% | – | 72% | – | – | −2 °C | +3 °C | no | C[n+]1ccccc1C#Cc1cnc2n3ccnc3n3ccnc3n12 |
| 88% | 15% | +8 °C | 66% | – | – | – | – | no | C[n+]1ccc(C#Cc2cnc3n4ccnc4n4ccnc4n23)cc1 |
| 90% | 50% | – | 75% | +23 °C | – | +15 °C | – | – | C[n+]1ccc(C#Cc2cnc3n2c2ncc(C#Cc4cc[n+](C)cc4)n2c2ncc(C#Cc4cc[n+](C)cc4)n32)cc1 |
| 84% | 39% | – | 74% | – | – | – | – | – | C[n+]1ccccc1C#Cc1cnc2n3ccnc3n3c(C#Cc4cccc[n+]4C)cnc3n12 |
